Experimental data: the Kinase Knowledgebase extract (Sharma et al. 2016)
pIC50, pKi: −log10 of the molar value.

molecular target: MAPK14 (human) (UniProt Q16539); test: Assessment of MAPK14 Kinase Activity by Fluorescence Anisotropy Kinase Binding Assay
Sequence (Q16539 whole entry, looked up): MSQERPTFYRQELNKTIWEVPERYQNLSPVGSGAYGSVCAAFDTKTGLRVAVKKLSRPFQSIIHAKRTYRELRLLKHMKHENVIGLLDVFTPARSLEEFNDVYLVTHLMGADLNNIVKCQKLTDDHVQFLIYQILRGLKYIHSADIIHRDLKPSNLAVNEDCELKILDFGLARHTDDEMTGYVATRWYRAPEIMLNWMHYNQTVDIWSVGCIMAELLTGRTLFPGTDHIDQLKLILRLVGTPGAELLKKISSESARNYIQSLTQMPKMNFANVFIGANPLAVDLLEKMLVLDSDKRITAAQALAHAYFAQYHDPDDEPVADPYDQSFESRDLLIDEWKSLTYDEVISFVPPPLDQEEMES

Row | pIC50 | pKi | Structure (SMILES)
1 | > 6.00 |  | O=c1ccc2c(-c3ccccc3)nccc2[nH]1
2 | > 6.00 |  | O=c1ccc2c(-c3ccccc3F)cccc2n1-c1ccc(F)cc1
3 | > 6.00 |  | O=c1ccc2c(-c3ccc(F)cc3F)cccc2n1-c1ccc(F)cc1
4 |  | 7.70 | O=c1ccc2c(-c3ccccc3Cl)nc(Br)cc2n1-c1ccccc1Cl
5 | > 6.00 |  | O=c1ccc2c(-c3ccc(F)cc3)ccnc2n1-c1ccc(F)cc1
6 |  | 7.70 | O=c1ccc2c(-c3ccccc3Cl)nc(Cl)cc2n1-c1ccccc1Cl
7 | > 6.00 |  | O=c1ccc2c(-c3ccc(F)cc3)cccc2n1-c1ccc(F)cc1
8 | > 6.00 |  | O=c1ccc2c(-c3ccc(F)cc3F)ccnc2n1-c1ccc(F)cc1
9 |  | 7.70 | O=c1ccc2c(-c3ccccc3Cl)cc(NC(CO)CO)cc2n1-c1ccccc1Cl
10 |  | 7.70 | O=c1ccc2c(-c3ccccc3)nccc2n1Cc1ccccc1
11 |  | 7.90 | COc1cc2c(ccc(=O)n2-c2ccccc2Cl)c(-c2ccccc2Cl)c1Br
